We go through 27 molecules from US8609836B2, “4-aryl-2-anilino-pyrimidines” (Janssen Pharmaceutica NV, priority 2008, dated 2013).

One test addresses PLK2 (h) (Homo sapiens, UniProt Q9NYY3). Nature of the test: PLK2 human kinase inhibition, SPA. It is filed as biochemical. The conditions noted are these: read-out: PLK2 pIC50 (converted). The method in brief:
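33P incorporation into a biotinylated peptide (2 μM) was captured on streptavidin PVT beads and imaged on Leadseeker. Enzyme at 30 μg/ml, ATP 0.1 μM with 2 nM [γ-33P]ATP, Hepes pH 8.0 with MnCl2 and DTT. Incubation was 20 min at room temperature.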

In another test the target is CDK4/CyclinD1 (h) (Homo sapiens, UniProt P11802). Nature of the test: CDK4/CyclinD1 human kinase inhibition, SPA with GST-pRb substrate. Type of test: biochemical. Conditions: read-out: CDK4 pIC50 (converted). The method in brief:
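Scintillation proximity format: after EDTA/Triton stop containing glutathione SPA beads, 33P incorporation was counted. The reaction ran 60 min at room temperature in Hepes pH 7.5 with NaF, MgCl2, DTT, using 2.5 μg/ml human CDK4/CyclinD1, 40 μg/ml GST-pRb substrate and 2 nM [γ-33P]ATP.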

The subject of the next test is MDA-MB-231. Nature of the test: Cellular proliferation assay (Alamar blue), MDA-MB-231. It is filed as cell-based. The conditions noted are these: Homo sapiens, 10% FCS, 72 hours with compound, Alamar blue 24 h, read-out: MDA/MB231 (cellular proliferation assay, Table 4) (converted). The method in brief: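 Growth inhibition measured after 72 h incubation with compound, following 24 h pre-culture at 37° C, 5% CO2 with 10% FCS. Resazurin-based read-out at 544/590 nm after 4 h (HCT-116), 6 h (U87-MG) or 24 h (A2780, MDA-MB-231); results relative to control.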
(The colour change of resazurin is a common sign of viable cells or microbes.)

For a further test, the target named is PLK1 T210D (h) (Homo sapiens, UniProt P53350, T210D). Nature of the test: PLK1 human kinase inhibition, SPA. It is filed as biochemical. The conditions noted are these: read-out: PLK1 pIC50 (converted). The essentials:
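Kinase incubated 40 min at room temperature with 0.1 μM ATP (2 nM [γ-33P]ATP tracer), 2 μM biotinylated peptide, pH 8.0 Hepes buffer with 2 mM MnCl2 and 1 mM DTT; enzyme at 0.125 ng/ml. Stopped with EDTA; 33P-peptide bound to streptavidin scintillant beads and imaged.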

Chain of CDK4/CyclinD1 (h) (P11802 whole entry): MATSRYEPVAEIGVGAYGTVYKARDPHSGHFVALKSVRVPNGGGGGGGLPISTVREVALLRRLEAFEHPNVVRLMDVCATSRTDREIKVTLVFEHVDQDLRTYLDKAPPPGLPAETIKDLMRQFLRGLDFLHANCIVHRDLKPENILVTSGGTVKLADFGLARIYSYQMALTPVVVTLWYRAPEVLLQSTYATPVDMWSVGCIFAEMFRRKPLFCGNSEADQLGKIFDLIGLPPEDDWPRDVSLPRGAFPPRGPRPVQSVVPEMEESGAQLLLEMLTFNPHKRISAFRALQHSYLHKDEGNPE
Chain of CDK4/CyclinD1 (h) (P24385 whole entry partner): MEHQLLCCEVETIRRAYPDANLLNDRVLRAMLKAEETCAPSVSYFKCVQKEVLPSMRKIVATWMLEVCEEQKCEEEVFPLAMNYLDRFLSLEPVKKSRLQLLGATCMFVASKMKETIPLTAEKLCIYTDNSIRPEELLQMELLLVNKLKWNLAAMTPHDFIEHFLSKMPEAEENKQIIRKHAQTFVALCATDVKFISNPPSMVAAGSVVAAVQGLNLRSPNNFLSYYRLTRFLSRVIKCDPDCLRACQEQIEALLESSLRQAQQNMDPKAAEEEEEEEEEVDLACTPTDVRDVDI
Chain of PLK1 T210D (h) (P53350 whole entry T210D): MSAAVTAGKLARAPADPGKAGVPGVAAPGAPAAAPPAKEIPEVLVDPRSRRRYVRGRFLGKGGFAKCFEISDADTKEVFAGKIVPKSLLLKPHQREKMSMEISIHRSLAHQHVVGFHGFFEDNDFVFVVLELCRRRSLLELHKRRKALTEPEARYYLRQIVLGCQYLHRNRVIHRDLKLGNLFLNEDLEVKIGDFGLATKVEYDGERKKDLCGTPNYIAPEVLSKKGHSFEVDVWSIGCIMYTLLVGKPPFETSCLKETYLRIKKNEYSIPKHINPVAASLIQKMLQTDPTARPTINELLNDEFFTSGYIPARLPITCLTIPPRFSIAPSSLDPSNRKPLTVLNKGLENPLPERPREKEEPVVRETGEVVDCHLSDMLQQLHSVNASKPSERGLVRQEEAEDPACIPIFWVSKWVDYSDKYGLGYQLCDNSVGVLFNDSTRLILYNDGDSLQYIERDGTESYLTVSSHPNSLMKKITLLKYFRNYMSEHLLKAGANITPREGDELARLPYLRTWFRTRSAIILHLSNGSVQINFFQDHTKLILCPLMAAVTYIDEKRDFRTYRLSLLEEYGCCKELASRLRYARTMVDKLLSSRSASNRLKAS
Chain of PLK2 (h) (Q9NYY3 whole entry): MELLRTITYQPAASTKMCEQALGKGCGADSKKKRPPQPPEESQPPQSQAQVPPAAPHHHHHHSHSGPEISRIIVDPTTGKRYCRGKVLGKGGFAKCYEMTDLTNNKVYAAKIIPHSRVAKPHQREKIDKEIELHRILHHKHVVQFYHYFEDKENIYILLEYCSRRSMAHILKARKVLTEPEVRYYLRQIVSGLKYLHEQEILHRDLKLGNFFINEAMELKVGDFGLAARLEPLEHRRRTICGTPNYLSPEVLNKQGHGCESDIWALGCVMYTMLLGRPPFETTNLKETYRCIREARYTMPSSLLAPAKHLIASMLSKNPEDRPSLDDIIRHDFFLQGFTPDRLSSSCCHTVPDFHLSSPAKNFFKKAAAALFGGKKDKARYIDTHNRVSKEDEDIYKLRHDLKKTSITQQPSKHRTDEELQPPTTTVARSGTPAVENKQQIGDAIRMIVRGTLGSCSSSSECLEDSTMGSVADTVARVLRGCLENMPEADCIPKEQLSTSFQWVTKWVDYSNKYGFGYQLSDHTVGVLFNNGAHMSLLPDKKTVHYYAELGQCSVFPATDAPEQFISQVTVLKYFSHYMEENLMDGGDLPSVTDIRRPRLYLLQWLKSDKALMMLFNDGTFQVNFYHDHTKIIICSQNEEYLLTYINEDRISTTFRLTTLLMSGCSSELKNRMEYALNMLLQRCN

`O=C1NCc2cccc(c2)-c2ccnc(n2)Nc2ccc(N3CCOCC3)c(c2)CN2CCC[C@@H]12` [Compound 1]: the IC50 is greater than 10 µM on PLK2 (h), 2.14 µM on CDK4/CyclinD1 (h), greater than 10 µM in the test on MDA-MB-231 and greater than 10 µM on PLK1 T210D (h).
`COc1ccc2cc1CN(C)CCCNC(=O)C1CCN(CC1)Cc1cc(cc(N3CCOCC3)c1)Nc1nccc-2n1` [Compound 80]: the IC50 on PLK2 (h), at CDK4/CyclinD1 (h), in the test with MDA-MB-231 and at PLK1 T210D (h) was greater than 10 µM in each case.
Consider `CN(C)CCNCc1cc2cc(c1)Nc1nccc(n1)-c1cccc(c1)CNC(=O)[C@@H]1CCCN1C2` [Compound 31], for which the IC50 is greater than 10 µM at PLK2 (h), 1 µM at CDK4/CyclinD1 (h), 1.55 µM in the test with MDA-MB-231 and greater than 10 µM on PLK1 T210D (h).
As for `CN1CCCNC(=O)[C@H](CO)NCc2cc(cc(N3CCOCC3)c2)Nc2nccc(n2)-c2ccc(cc2)C1` [Compound 10], the IC50 at PLK2 (h), at CDK4/CyclinD1 (h), with MDA-MB-231 and at PLK1 T210D (h) was greater than 10 µM each time.
On to `O=C1NCCNc2cc(ccn2)-c2ccnc(n2)Nc2ccc(N3CCOCC3)c(c2)CN2CCC1CC2` [Compound 84], for which the IC50 at PLK2 (h) was greater than 10 µM; at CDK4/CyclinD1 (h), 7.24 µM; with MDA-MB-231, greater than 10 µM; on PLK1 T210D (h), greater than 10 µM.
In the case of `COc1ccc2cc1CN(C)CCNC(=O)C1CCN(CC1)Cc1cccc(c1)Nc1nccc-2n1` [Compound 83], the IC50 on PLK2 (h), on CDK4/CyclinD1 (h), with MDA-MB-231 and on PLK1 T210D (h) was greater than 10 µM throughout.
For `C[C@H]1NCc2cc(ccc2N2CCOCC2)Nc2nccc(n2)-c2cccc(c2)OCCCNC1=O` [Compound 87], the IC50 on PLK2 (h) was greater than 10 µM; at CDK4/CyclinD1 (h) it was 1.26 µM; in the test with MDA-MB-231, 8.13 µM; at PLK1 T210D (h), greater than 10 µM.
With `CN1CCNC(=O)C2CCN(CC2)Cc2cc(Br)cc(c2)Nc2nccc(n2)-c2ccc(cc2)C1` [Compound 60], the IC50 on PLK2 (h), at CDK4/CyclinD1 (h), with MDA-MB-231 and on PLK1 T210D (h) was greater than 10 µM throughout.
On to `COc1ccc2cc1CNCCNC(=O)[C@@H]1CCCN1Cc1cc(ccc1N1CCOCC1)Nc1nccc-2n1` [Compound 178], for which the IC50 at PLK2 (h), on CDK4/CyclinD1 (h), in the test with MDA-MB-231 and on PLK1 T210D (h) was greater than 10 µM each time.
With `O=C1NCc2cccc(c2)-c2ccnc(n2)Nc2cc(CN3CCOCC3)cc(c2)CN2CCC[C@@H]12` [Compound 22], the IC50 at PLK2 (h) is greater than 10 µM; on CDK4/CyclinD1 (h), 2.75 µM; in the test on MDA-MB-231, 1.7 µM; at PLK1 T210D (h), greater than 10 µM.
With `COc1ccc2cc1CN(C)CCNC(=O)CN1CCN(CC1)Cc1cc(cc(N3CCOCC3)c1)Nc1nccc-2n1` [Compound 145], the IC50 on PLK2 (h), at CDK4/CyclinD1 (h), with MDA-MB-231 and on PLK1 T210D (h) was greater than 10 µM throughout.
`COc1ccc2cc1CN(C)CCCNC(=O)C1CCN(CC1)Cc1cc(cc(NC(C)C)c1)Nc1nccc-2n1` [Compound 70]: the IC50 on PLK2 (h), on CDK4/CyclinD1 (h), in the test on MDA-MB-231 and on PLK1 T210D (h) was greater than 10 µM throughout.
With `COc1ccc2cc1CN(C)CCCNC(=O)CN1CCN(CC1)Cc1cccc(c1)Nc1nccc-2n1` [Compound 146], the IC50 on PLK2 (h), on CDK4/CyclinD1 (h), in the test on MDA-MB-231 and at PLK1 T210D (h) was greater than 10 µM each time.
For `COc1ccc2cc1CNCCNC(=O)CN1CCN(CC1)Cc1cc(ccc1N1CCOCC1)Nc1nccc-2n1` [Compound 126], the IC50 on PLK2 (h), at CDK4/CyclinD1 (h), in the test on MDA-MB-231 and on PLK1 T210D (h) was greater than 10 µM each time.
In the case of `CN1CCCNC(=O)[C@H](CO)NCc2cccc(c2)Nc2nccc(n2)-c2ccc(cc2)C1` [Compound 113], the IC50 on PLK2 (h), on CDK4/CyclinD1 (h), in the test with MDA-MB-231 and on PLK1 T210D (h) was greater than 10 µM each time.
Consider `O=C1NCCNc2cc(ccn2)-c2ccnc(n2)Nc2ccc(N3CCOCC3)c(c2)CN2CCCC12` (stereo not drawn) [Compound 161], for which the IC50 on PLK2 (h), at CDK4/CyclinD1 (h), in the test on MDA-MB-231 and on PLK1 T210D (h) was greater than 10 µM throughout.
For the molecule `O=C1NCCNCc2ccc(cc2)-c2ccnc(n2)Nc2ccc(N3CCOCC3)c(c2)CN[C@H]1CO` [Compound 115], the IC50 at PLK2 (h), at CDK4/CyclinD1 (h), in the test with MDA-MB-231 and at PLK1 T210D (h) was greater than 10 µM throughout.
For the molecule `CN1CCCNC(=O)C2CCN(CC2)Cc2cccc(c2)Nc2nccc(n2)-c2ccc(cc2)C1` [Compound 78], the IC50 on PLK2 (h) was greater than 10 µM; at CDK4/CyclinD1 (h) it was greater than 10 µM; in the test on MDA-MB-231, 7.59 µM; on PLK1 T210D (h) it was greater than 10 µM.
As for `C[C@@H]1NCc2cc(ccc2N2CCOCC2)Nc2nccc(n2)-c2cccc(c2)OCCCNC1=O` [Compound 88], the IC50 is greater than 10 µM at PLK2 (h), 1.41 µM at CDK4/CyclinD1 (h), 6.76 µM with MDA-MB-231 and greater than 10 µM on PLK1 T210D (h).
For `COc1ccc2cc1CN(C)CCCNC(=O)CN1CCN(CC1)Cc1cc(cc(NC(C)C)c1)Nc1nccc-2n1` [Compound 130], the IC50 on PLK2 (h), at CDK4/CyclinD1 (h), in the test on MDA-MB-231 and at PLK1 T210D (h) was greater than 10 µM in each case.
`CN1CCNC(=O)C2CCN(CC2)Cc2cccc(c2)Nc2nccc(n2)-c2ccc(cc2)C1` [Compound 82]: the IC50 at PLK2 (h), on CDK4/CyclinD1 (h), with MDA-MB-231 and on PLK1 T210D (h) was greater than 10 µM in each case.
For the molecule `COc1ccc2cc1CN(C)CCNC(=O)CN1CCN(CC1)Cc1cc(cc(NC(C)C)c1)Nc1nccc-2n1` [Compound 142], the IC50 on PLK2 (h), on CDK4/CyclinD1 (h), in the test with MDA-MB-231 and at PLK1 T210D (h) was greater than 10 µM in each case.
As for `O=C1NCCCOc2cccc(c2)-c2ccnc(n2)Nc2ccc(N3CCOCC3)c(c2)CN[C@H]1Cc1ccccc1` [Compound 91], the IC50 on PLK2 (h), at CDK4/CyclinD1 (h), in the test with MDA-MB-231 and at PLK1 T210D (h) was greater than 10 µM throughout.
As to `O=C1NCCOc2ccc(cc2)-c2ccnc(n2)Nc2ccc(N3CCOCC3)c(c2)CN2CCC1CC2` [Compound 6], the IC50 on PLK2 (h) is greater than 10 µM; at CDK4/CyclinD1 (h), 0.562 µM; with MDA-MB-231, 0.363 µM; on PLK1 T210D (h) it was greater than 10 µM.
For the molecule `O=C1NCCCOc2ccc(cc2)-c2ccnc(n2)Nc2ccc(N3CCOCC3)c(c2)CN2CCC[C@@H]12` [Compound 7], the IC50 is greater than 10 µM at PLK2 (h), 6.46 µM on CDK4/CyclinD1 (h), greater than 10 µM with MDA-MB-231 and greater than 10 µM at PLK1 T210D (h).
As to `COc1ccc2cc1CN(C)CCCNC(=O)CN1CCN(CC1)Cc1cc(Br)cc(c1)Nc1nccc-2n1` [Compound 144], the IC50 at PLK2 (h), at CDK4/CyclinD1 (h), in the test with MDA-MB-231 and on PLK1 T210D (h) was greater than 10 µM in each case.
On to `CN(C)C(=O)c1ccc2cc1CN1CCC[C@H]1C(=O)NCc1cccc(c1)-c1ccnc(n1)N2` [Compound 24], for which the IC50 at PLK2 (h) was greater than 10 µM; on CDK4/CyclinD1 (h), 4.27 µM; in the test with MDA-MB-231 it was greater than 10 µM; at PLK1 T210D (h), greater than 10 µM.
